{
  "source": "paper PMC11859726",
  "about": "“HDAC/σ1R Dual-Ligand as a Targeted Melanoma Therapeutic” (Pharmaceuticals, 2025)",
  "key": {"UM 92-1 cells [1]": {"test_system": "UM 92-1 cells", "test": "Cell proliferation, UM 92-1 cells", "assay_type": "cell-based, human", "method": "(§1) Cells were seeded in 96-well plates at a cell-specific density, following quantification of cell numbers on counting chambers after trypsinization and staining with trypan blue. After seeding (72 h), at a cell confluence of ~50%, the medium was removed, and treatments were started with fresh media. Treatments, carried out in quadruplicate, lasted for 48 h. Then, the cells were fixed with 4% paraformaldehyde in PBS for 20 min and, after washing, stained with either 1% crystal violet in water or an acridine orange solution (50 µg/mL) for an additional 20 min. At the end of the incubations, cells were washed (3 times) with 100 μL/well of bidistilled water. Finally, for crystal violet assays, 100 μL of 10% acetic acid was added to each well, and the absorbance (λ = 590 nm) was measured with a Synergy HTX Bioteck spectrophotometer (BioSPX, Beersel, Belgium). For acridine orange assays, cell staining was evaluated by measuring the fluorescence (excitation 485/20 nm, emission 528/20 nm) with the Synergy HTX Bioteck reader."}, "A375 cells": {"test_system": "A375 cells", "test": "Cell proliferation, CM A375 cells", "assay_type": "cell-based, human", "method": "as §1"}, "σ1R": {"target": "T1, σ1R (Cavia porcellus, UniProt Q60492)", "T1 construct": "using guinea pig brain membranes and appropriate radioligands; from tissue; host or cells: guinea pig brain membranes", "T1 sequence (Q60492 whole entry)": "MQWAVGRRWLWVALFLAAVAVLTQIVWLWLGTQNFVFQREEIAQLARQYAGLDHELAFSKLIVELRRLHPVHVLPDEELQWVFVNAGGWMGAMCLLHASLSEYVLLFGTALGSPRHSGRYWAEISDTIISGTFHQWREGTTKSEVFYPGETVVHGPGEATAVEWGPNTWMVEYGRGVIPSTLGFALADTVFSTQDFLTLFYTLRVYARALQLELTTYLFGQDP", "test": "σ1R radioligand binding assay ([3H]-(+)-pentazocine)", "design": "species or system guinea pig", "description": "(§4) Radioactivity was determined with a Beckman LS6500 scintillation counter. Inhibition constants (Ki values) were calculated with the EBDA/LIGAND program (Elsevier/Biosoft)."}, "σ2R": {"target": "T2, σ2R (Cavia porcellus, UniProt H0V073)", "T2 construct": "using guinea pig brain membranes and appropriate radioligands; from tissue; host or cells: guinea pig brain membranes", "T2 sequence (H0V073 1-176)": "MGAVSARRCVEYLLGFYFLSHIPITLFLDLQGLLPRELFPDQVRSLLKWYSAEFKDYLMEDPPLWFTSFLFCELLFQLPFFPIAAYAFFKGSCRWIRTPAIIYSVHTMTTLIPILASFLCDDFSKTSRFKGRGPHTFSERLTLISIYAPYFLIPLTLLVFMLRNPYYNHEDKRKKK", "test": "σ2R radioligand binding assay ([3H]-DTG)", "design": "species or system guinea pig", "description": "as §4"}, "[2]": {"test_system": "HDAC (total HDAC activity, HCT116 cell lysates)", "test": "HDAC activity colorimetric assay in HCT116 cell lysates", "assay_type": "biochemical, human", "method": "(§2) HDAC activity was determined in the indicated cell lysates (50 µg proteins; 37 °C) using the non-selective HDAC Activity Colorimetric Assay kit (BioVision, Cambridge, UK), following the procedures described in previous studies. Samples were read at 405 nm with a microplate reader (Multiskan GO (Thermo Fisher Scientific, Waltham, MA, USA)), and the HDAC activity was expressed as the relative optical density (O.D.) values."}, "[3]": {"test_system": "HDAC enzymatic activities (MCF7, PC3, AGS cell lysates)", "test": "HDAC activity colorimetric assay in other cancer cell lysates (MCF7, PC3, AGS)", "assay_type": "biochemical, human", "settings": "other cancer cell types (MCF7, PC3, AGS lysates) vs control", "method": "as §2"}, "A549 cells": {"test_system": "A549 cells", "test": "Cell proliferation, A549 cells", "assay_type": "cell-based", "settings": "Homo sapiens; A549 (Lung Carcinoma); 48 h; mean ± SD; read-out: Antiproliferative IC50", "method": "as §1"}, "786-O cells": {"test_system": "786-O cells", "test": "Cell proliferation, 786-O cells", "assay_type": "cell-based", "settings": "Homo sapiens, 786-0; 786-O (Renal Adenocarcinoma); 48 h; mean ± SD; read-out: Antiproliferative IC50", "method": "as §1"}, "MRC-5 cells": {"test_system": "MRC-5 cells", "test": "Cell proliferation, normal MRC-5 fibroblasts", "assay_type": "cell-based", "settings": "Homo sapiens, MRC5; MRC-5 (Normal Lung Fibroblast); 48 h; mean ± SD; read-out: Antiproliferative IC50", "method": "as §1"}, "T84 cells": {"test_system": "T84 cells", "test": "Cell proliferation, T84 cells", "assay_type": "cell-based, human", "method": "as §1"}, "WS1 cells": {"test_system": "WS1 cells", "test": "Cell proliferation, normal WS1 fibroblasts", "assay_type": "cell-based", "settings": "Homo sapiens; WS1 (Normal Skin Fibroblast); 48 h; mean ± SD; read-out: Antiproliferative IC50", "method": "as §1"}, "endothelial C166 cells": {"test_system": "endothelial C166 cells", "test": "Tube formation assay, VEGF-A-stimulated endothelial cells", "assay_type": "cell-based, mouse", "method": "The tube formation assay using mouse endothelial […] cells was analyzed employing Matrigel (BD, Bedford, MA, USA), as previously described. Briefly, 96-well plates coated with Matrigel (50 μL/well) were filled with 100 μL medium/well and maintained overnight. Endothelial cells were seeded at 2.5 × 10^4 cells/well and incubated (for 3 h) with VEGF-A (80 ng/mL), in the presence of the indicated treatments. Then, capillary-like structures were imaged (×4 magnification) with a CCD camera connected with an inverted EVOS microscope. Finally, ImageJ software (NIH, Bethesda, MD, USA) was employed to quantify tube formations."}, "UM 92-1 cells [4]": {"test_system": "UM 92-1 cells", "test": "Tumor cell spreading assay, 92-1 cells", "assay_type": "cell-based, human", "settings": "1 h; for cells flat, with protrusions, Exp 1 (%) / cells flat, with protrusions, Exp 2 (%) / cells flat, with protrusions, Exp 3 (%) / rounded cells, Exp 1 (%) / rounded cells, Exp 2 (%) / rounded cells, Exp 3 (%): 92-1, % of total cell population", "method": "(§3) Adherent 92-1 and MCF-7 cells were harvested using 0.05% Trypsin-EDTA and plated in 6-well plates. After 1 h incubations with the indicated treatments, the number of cells that formed, or not, distinct protrusions (lamellipodia, filopodia) were scored with an inverted microscope (20×, EVOS cell imaging system, Thermo Fisher, Waltham, MA, USA)."}, "MCF7 cells": {"test_system": "MCF7 cells", "test": "Tumor cell spreading assay, MCF7 cells", "assay_type": "cell-based, human", "settings": "100 nM, 1 h", "method": "as §3"}, "[5]": {"settings": "MCF-7, % of total cell population"}},
  "data": [
    {"smiles": "c1ccc(CCN2CCCCC2)cc1", "note": "[AC927, reference compound]", "values": [
      {"measurement": "effect on proliferation", "setting": "UM 92-1 cells [1]; UM 92-1 cells, 3c 30 and 100 nM, pentazocine 2 μM, AC927 2 μM, Figure 3a", "result": "did not alter"},
      {"measurement": "effect on proliferation", "setting": "A375 cells; CM A375 cells, 3c 90 and 200 nM, pentazocine 2 μM, AC927 2 μM, Figure 3b", "result": "did not alter"}
    ]},
    {"smiles": "Cl.O=C(/C=C/c1ccc(CN2CCC(O)(c3ccc(Cl)cc3)CC2)cc1)NO", "note": "[5c, (E)-4-(4-chlorophenyl)-4-hydroxy-1-{4-[3-(hydroxyamino)-3-oxoprop-1-en-1-yl]benzyl}piperidin-1-ium chloride]", "values": [
      {"measurement": "Ki", "setting": "σ1R", "result": "19 ± 1.6", "unit": "nM"},
      {"measurement": "fold higher affinity for σ1R than σ2R", "setting": "σ1R; σ1R vs σ2R Ki", "result": "> 100", "unit": "fold"},
      {"measurement": "Ki", "setting": "σ2R", "result": "2050 ± 737", "unit": "nM"},
      {"measurement": "HDAC inhibition with respect to the vehicle control", "setting": "[2]", "result": "~ 80%"},
      {"measurement": "IC50", "setting": "[2]; 0–20 µM, read-out: IC50 on HDAC-dependent catalytic activity", "result": 14.6, "unit": "nM"},
      {"measurement": "suppression of resident HDAC enzymatic activities", "setting": "[3]", "result": "significant suppression"},
      {"measurement": "superior antiproliferative potency in UM cells compared to normal lung fibroblasts", "setting": "UM 92-1 cells [1]; 92-1 vs MRC-5 IC50", "result": "~ 5 fold"},
      {"measurement": "IC50", "setting": "UM 92-1 cells [1]; Homo sapiens, 92.1 (Uveal Melanoma), 48 h, mean ± SD, read-out: Antiproliferative IC50", "result": "24.8 ± 5.8", "unit": "nM"},
      {"measurement": "shift to the left in antiproliferative dose–response curves compared to normal skin fibroblasts", "setting": "A375 cells; CM A375, lung A549 and renal 786-O vs WS1", "result": "8–10 fold"},
      {"measurement": "IC50", "setting": "A375 cells; Homo sapiens, A-375, A375 (Cutaneous Melanoma), 48 h, mean ± SD, read-out: Antiproliferative IC50", "result": "91.5 ± 11.4", "unit": "nM"},
      {"measurement": "IC50", "setting": "A549 cells", "result": "118 ± 13", "unit": "nM"},
      {"measurement": "IC50", "setting": "786-O cells", "result": "150 ± 24", "unit": "nM"},
      {"measurement": "IC50", "setting": "MRC-5 cells", "result": "157 ± 55.2", "unit": "nM"},
      {"measurement": "IC50", "setting": "T84 cells; Homo sapiens, T84 (Colorectal Carcinoma), 48 h, mean ± SD, read-out: Antiproliferative IC50", "result": "1200 ± 381", "unit": "nM"},
      {"measurement": "sensitivity to antitumor actions", "setting": "T84 cells; colon cancer T84 cells", "result": "resistant"},
      {"measurement": "IC50", "setting": "WS1 cells", "result": "1160 ± 187", "unit": "nM"},
      {"measurement": "effect on VEGF-A-stimulated angiogenesis", "setting": "endothelial C166 cells; 30 nM, 3 h, VEGF-A 80 ng/mL", "result": "without effects"},
      {"measurement": "antiangiogenic effect in the presence of pentazocine", "setting": "endothelial C166 cells; 5 µM plus σ1R agonist pentazocine 2 μM, combined score", "result": "completely prevented"},
      {"measurement": "antiangiogenic effect in the presence of AC927", "setting": "endothelial C166 cells; 5 µM plus σ2R antagonist AC927 2 μM, combined score", "result": "to a significantly lesser extent than pentazocine"},
      {"measurement": "effect on VEGF-A-stimulated angiogenesis (tube lengths, mesh areas, node numbers; words)", "setting": "endothelial C166 cells; 5 µM, 3 h, VEGF-A 80 ng/mL", "result": "abrogated"},
      {"measurement": "cells flat, with protrusions, Exp 1 (%)", "setting": "UM 92-1 cells [4]; 100 nM", "result": "37,23%"},
      {"measurement": "cells flat, with protrusions, Exp 2 (%)", "setting": "UM 92-1 cells [4]; 100 nM", "result": "27,77%"},
      {"measurement": "cells flat, with protrusions, Exp 3 (%)", "setting": "UM 92-1 cells [4]; 100 nM", "result": "37,27%"},
      {"measurement": "rounded cells, Exp 1 (%)", "setting": "UM 92-1 cells [4]; 100 nM", "result": "62,77%"},
      {"measurement": "rounded cells, Exp 2 (%)", "setting": "UM 92-1 cells [4]; 100 nM", "result": "72,23%"},
      {"measurement": "rounded cells, Exp 3 (%)", "setting": "UM 92-1 cells [4]; 100 nM", "result": "62,73%"},
      {"measurement": "cells flat, with protrusions, Exp 1 (%)", "setting": "UM 92-1 cells [4]; 5 µM", "result": "28,48%"},
      {"measurement": "cells flat, with protrusions, Exp 2 (%)", "setting": "UM 92-1 cells [4]; 5 µM", "result": "17,22%"},
      {"measurement": "cells flat, with protrusions, Exp 3 (%)", "setting": "UM 92-1 cells [4]; 5 µM", "result": "33,05%"},
      {"measurement": "rounded cells, Exp 1 (%)", "setting": "UM 92-1 cells [4]; 5 µM", "result": "71,52%"},
      {"measurement": "rounded cells, Exp 2 (%)", "setting": "UM 92-1 cells [4]; 5 µM", "result": "82,78%"},
      {"measurement": "rounded cells, Exp 3 (%)", "setting": "UM 92-1 cells [4]; 5 µM", "result": "66,95%"},
      {"measurement": "inhibition of cell spreading", "setting": "UM 92-1 cells [4]; UM 92-1 cells, from 100 nM", "result": "significant inhibition"},
      {"measurement": "inhibition of cell spreading", "setting": "MCF7 cells; MCF7 cells (low σ1R)", "result": "failed to suppress"},
      {"measurement": "cells flat, with protrusions, Exp 1 (%)", "setting": "MCF7 cells; [5]", "result": "47,13%"},
      {"measurement": "cells flat, with protrusions, Exp 2 (%)", "setting": "MCF7 cells; [5]", "result": "44,67%"},
      {"measurement": "cells flat, with protrusions, Exp 3 (%)", "setting": "MCF7 cells; [5]", "result": "39,07%"},
      {"measurement": "rounded cells, Exp 1 (%)", "setting": "MCF7 cells; [5]", "result": "52,87%"},
      {"measurement": "rounded cells, Exp 2 (%)", "setting": "MCF7 cells; [5]", "result": "55,33%"},
      {"measurement": "rounded cells, Exp 3 (%)", "setting": "MCF7 cells; [5]", "result": "60,93%"}
    ]}
  ]
}
